Columns and labels:
[1] = Cytotoxicity against MDCK cells assessed as cell death by MTT assay; format: cell-based, Canis lupus familiaris; conditions: dog, read-out: CTD50
[2] = Selectivity index, ratio of CTD50 for MDCK cells to ED50 for Influenza A virus (A/Puerto Rico/8/34(H1N1)); format: toxicity; conditions: dog, read-out: Selectivity Index

Compound: CC(N)[C@@H]1C[C@H]2CC[C@]1(C)C2 (stereo not given in full)
- CC50 [1]: 1110 µM
- selectivity ratio [2]: 6

Compound: COCCNCCc1cn(CC/N=C2\C[C@H]3CC[C@]2(C)C3(C)C)nn1
- CC50 [1]: 865 µM
- selectivity ratio [2]: 34

Compound: CCCCc1cn(CC/N=C2\C[C@H]3CC[C@]2(C)C3(C)C)nn1
- CC50 [1]: 303 µM
- selectivity ratio [2]: 5

Compound: CC(C)(O)Cc1cn(CC/N=C2\C[C@H]3CC[C@]2(C)C3(C)C)nn1
- CC50 [1]: > 987 µM
- selectivity ratio [2]: > 31

Compound: CC1(C)[C@@H]2CC[C@@]1(C)/C(=N/CCOCc1cn(-c3ccccc3)nn1)C2
- CC50 [1]: 138 µM
- selectivity ratio [2]: 2

Compound: CNCc1cn(CC/N=C2\C[C@H]3CC[C@]2(C)C3(C)C)nn1
- CC50 [1]: 195 µM
- selectivity ratio [2]: < 2

Compound: CC1(C)[C@@H]2CC[C@@]1(C)/C(=N/CCn1cc(CCN3CCOCC3)nn1)C2
- CC50 [1]: > 836 µM
- selectivity ratio [2]: > 18

Compound: CC1(C)[C@@H]2CC[C@@]1(C)/C(=N/CCn1cc(CO)nn1)C2
- CC50 [1]: > 1090 µM
- selectivity ratio [2]: 2

Compound: CC1(C)[C@@H]2CC[C@@]1(C)/C(=N/CCN=[N+]=[N-])C2
- CC50 [1]: > 1360 µM
- selectivity ratio [2]: > 3

Compound: CCOP(=O)(OCC)C(Cc1cn(CC/N=C2\C[C@H]3CC[C@]2(C)C3(C)C)nn1)P(=O)(OCC)OCC
- CC50 [1]: 92 µM
- selectivity ratio [2]: 2

Compound: CCOC(=O)C(C)(Cc1cn(CC/N=C2\C[C@H]3CC[C@]2(C)C3(C)C)nn1)P(=O)(OCC)OCC (stereo not given in full)
- CC50 [1]: > 555 µM
- selectivity ratio [2]: 2

Compound: CC1(C)[C@@H]2CC[C@@]1(C)/C(=N\CCOCc1cn(CC/N=C3\C[C@H]4CC[C@]3(C)C4(C)C)nn1)C2
- CC50 [1]: 117 µM
- selectivity ratio [2]: 1

Compound: CC(N)C12CC3CC(CC(C3)C1)C2 (stereo not given) [RIMANTADINE]
- CC50 [1]: 344 µM
- selectivity ratio [2]: 5

Compound: CC1(C)[C@@H]2CC[C@@]1(C)/C(=N/CCn1cc(CCO)nn1)C2
- CC50 [1]: > 1030 µM
- selectivity ratio [2]: > 19

Compound: CC(C)(C)OC(=O)Cn1cc(COCC/N=C2\C[C@H]3CC[C@]2(C)C3(C)C)nn1
- CC50 [1]: 204 µM
- selectivity ratio [2]: 8

Compound: CCOP(=O)(CCCCn1cc(COCC/N=C2\C[C@H]3CC[C@]2(C)C3(C)C)nn1)OCC
- CC50 [1]: > 641 µM
- selectivity ratio [2]: > 2

Compound: NC12CC3CC(CC(C3)C1)C2 [AMANTADINE]
- CC50 [1]: 266 µM
- selectivity ratio [2]: 4

Compound: CC1(C)[C@@H]2CC[C@@]1(C)/C(=N/CCOCc1cn(CCO)nn1)C2
- CC50 [1]: > 938 µM
- selectivity ratio [2]: > 19

Compound: CC1(C)[C@@H]2CC[C@@]1(C)/C(=N/CCn1cc([Si](C)(C)C)nn1)C2
- CC50 [1]: 32 µM
- selectivity ratio [2]: < 1

Compound: C#CCOCC/N=C1\C[C@H]2CC[C@]1(C)C2(C)C
- CC50 [1]: 971 µM
- selectivity ratio [2]: 2

Source: ChEMBL document CHEMBL4038286, “Synthesis of camphecene derivatives using click chemistry methodology and study of their antiviral activity” (Bioorg Med Chem Lett, 2017)
